# From patent US9963462B2 (priority 2015, dated 2018)
# Biological target: SNAP-hSPR (sepiapterin reductase, SPR) (Homo sapiens, UniProt P35270)
# Assay: biochemical
# Assay type: binding
# Details: terbium labelled SNAP-hSPR / SSZ labelled SNAP-EGFP; read-out: hTR-FRET IC50
# SNAP-hSPR (sepiapterin reductase, SPR), sequence (P35270 whole entry): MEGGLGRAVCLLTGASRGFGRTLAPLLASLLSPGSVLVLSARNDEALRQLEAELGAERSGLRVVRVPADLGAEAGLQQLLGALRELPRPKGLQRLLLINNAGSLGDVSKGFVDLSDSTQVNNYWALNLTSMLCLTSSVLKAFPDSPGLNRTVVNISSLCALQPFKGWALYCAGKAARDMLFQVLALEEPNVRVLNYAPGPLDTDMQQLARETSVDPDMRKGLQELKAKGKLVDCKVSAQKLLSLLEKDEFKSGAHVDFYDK
row,SMILES,IC50 [nM]
1,CC(=O)Nc1ccc(S(=O)(=O)N2CCN(C(=O)c3cnn(-c4nn5cccc5c(=O)[nH]4)c3C)CC2)cc1 [Q-1833],1
2,Cc1c(C(=O)N2CCN(S(=O)(=O)c3ccc(C(F)(F)F)cc3)CC2)cnn1-c1nn2cccc2c(=O)[nH]1 [Q-1834],1
3,Cc1c(C(=O)N2CCN(S(=O)(=O)c3cc(C(F)(F)F)cc(C(F)(F)F)c3)CC2)cnn1-c1nn2cccc2c(=O)[nH]1 [Q-1835],4
4,Cc1c(C(=O)N2CCN(S(=O)(=O)c3ccc(Br)cc3)CC2)cnn1-c1nn2cccc2c(=O)[nH]1 [Q-1837],1
5,COc1ccc(OC)c(S(=O)(=O)N2CCN(C(=O)c3cnn(-c4nn5cccc5c(=O)[nH]4)c3C)CC2)c1 [Q-1839],2
6,Cc1c(C(=O)N2CCN(S(=O)(=O)c3ccc(Cl)c(C(F)(F)F)c3)CC2)cnn1-c1nn2cccc2c(=O)[nH]1 [Q-1840],3
7,Cc1c(C(=O)N2CCN(S(=O)(=O)c3cccc(C(=O)O)c3)CC2)cnn1-c1nn2cccc2c(=O)[nH]1 [Q-1845],2
8,Cc1c(C(=O)N2CCN(S(=O)(=O)c3cnc4ccccc4c3)CC2)cnn1-c1nn2cccc2c(=O)[nH]1 [Q-1864],4
9,Cc1c(C(=O)N2CCN(S(=O)(=O)c3ccc(Cl)c4nonc34)CC2)cnn1-c1nn2cccc2c(=O)[nH]1 [Q-1885],10
10,Cc1c(C(=O)N2CCC(S(=O)(=O)c3ccccc3)CC2)cnn1-c1nn2cccc2c(=O)[nH]1 [Q-1984],1
11,Cc1c(C(=O)N2CCC(S(C)(=O)=O)CC2)cnn1-c1nn2cccc2c(=O)[nH]1 [Q-1985],2
12,Cc1c(C(=O)N2CCC(S(=O)(=O)N3CCCC3)CC2)cnn1-c1nn2cccc2c(=O)[nH]1 [Q-2007],1
13,Cc1c(C(=O)N2CCc3[nH]nc(C(F)(F)F)c3C2)cnn1-c1nn2cccc2c(=O)[nH]1 [Q-2031],3
14,Cc1c(C(=O)N2CCN(C(=O)c3ccco3)CC2)cnn1-c1nn2cccc2c(=O)[nH]1 [Q-2032],6
15,Cc1c(C(=O)N2CCN(C3COC3)CC2)cnn1-c1nn2cccc2c(=O)[nH]1 [Q-2041],3
16,Cc1c(C(=O)N2CC(c3ccncc3F)C2)cnn1-c1nn2cccc2c(=O)[nH]1 [Q-2043],5
17,Cc1c(C(=O)N2CCc3c(c(C(F)(F)F)nn3C)C2)cnn1-c1nn2cccc2c(=O)[nH]1 [Q-2048],4
18,Cc1c(C(=O)N2CC[C@@H]2c2ccc(F)nc2)cnn1-c1nn2cccc2c(=O)[nH]1 [Q-2054],4
19,Cc1c(C(=O)N2CC[C@H]2c2ccc(F)nc2)cnn1-c1nn2cccc2c(=O)[nH]1 [Q-2055],7

# Tested on: BH4 levels in SK-N-BE (2) cells
# Assay: SKN-N-BE (2) cellular assay, BH4 levels by LC-MS
# Assay type: cell-based
# Details: Homo sapiens, SKNBE2, read-out: SK-N-BE(2) IC50, SK-N-BE (2) cells, BH4 levels by LC-MS
row,SMILES,IC50 [nM]
1,"Cc1c(C(=O)N2CC[C@@H](C(F)(F)F)C[C@H]2C)cnn1-c1nc2c(c(=O)[nH]1)CCC2 (single isomer, unassigned) [Q-0442]",200
2,"Cc1c(C(=O)N2CC[C@H](C(F)(F)F)C[C@@H]2C)cnn1-c1nc2c(c(=O)[nH]1)CCC2 (single isomer, unassigned) [Q-0459]",59
3,Cc1c(C(=O)N2CCC(C(F)(F)F)CC2)cnn1-c1nc2ncsc2c(=O)[nH]1 [Q-0433],58000
4,Cc1c(C(=O)N2CCC(C(F)(F)F)CC2)cnn1-c1nn2cccc2c(=O)[nH]1 [Q-0533],69
5,CCCC(C#N)C1CCN(C(=O)c2cnn(-c3nn4cccc4c(=O)[nH]3)c2C)CC1 (stereo not drawn) [Q-0858],44
6,Cc1c(C(=O)N2C[C@H]3C[C@@H]2CN3C(=O)OC(C)(C)C)cnn1-c1nn2cccc2c(=O)[nH]1 [Q-0860],1000
7,Cc1c(C(=O)N2CC(CN(C)C(=O)OC(C)(C)C)C2)cnn1-c1nn2cccc2c(=O)[nH]1 [Q-0861],400
8,Cc1c(C(=O)N2CCN3C(=O)CC[C@@H]3C2)cnn1-c1nn2cccc2c(=O)[nH]1 [Q-0862],10000
9,O=C(c1cnn(-c2nn3c(F)ccc3c(=O)[nH]2)c1C1CC1)N1CCC1 [Q-0863],600
10,Cc1c(C(=O)N2CCC3C(CCN3C(=O)OC(C)(C)C)C2)cnn1-c1nn2cccc2c(=O)[nH]1 (stereo not drawn) [Q-0865],100
11,Cc1c(C(=O)N2CCn3ccnc3C2)cnn1-c1nn2cccc2c(=O)[nH]1 [Q-0866],6700
